Assays:
TNFα = assay: Mouse TNF Alpha Quantification Assay (LPS-stimulated RAW 264.7); assay type: cell-based; set-up: dose or concentration left out as unconfirmed; conditions: RAW264.7, ELISA, read-out: TNFα: % inh.
KRas wild type = assay: Ras GTP Binding Domain Inhibition Assay, KRas wild type; conditions: at 20 μM; for KRas wild type + SOS: % inh.: with SOS; for KRas wild type: % inh.: without SOS
Method in brief: (§1)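 Ni-plate-captured His-tagged GTPase (10-30 μg/mL, o/n 4° C); cpd 20 μM or serial dilution (IC50), 1% DMSO, 3 h RT; optional Sos 556-1049 His-tag (10-30 μg/mL) last hour. Cy3- or Cy5-GTP 100 nM, 45 min RT, 3× wash, fluorescence read.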

IL-6 = assay: Mouse IL6 Quantification Assay (LPS-stimulated RAW 264.7); assay type: cell-based; set-up: dose or concentration left out as unconfirmed; conditions: RAW264.7, ELISA, read-out: IL-6: % inh.
KRas G12C mutant = assay: Ras GTP Binding Domain Inhibition Assay, KRas G12C mutant; conditions: at 20 μM; for KRas G12C mutant + SOS: % inh.: with SOS; for KRas G12C mutant: % inh.: without SOS
Method in brief: as §1

Rho-A = assay: Ras GTP Binding Domain Inhibition Assay, Rho-A; conditions: at 20 μM; without SOS
Method in brief: as §1

Smad2/3 phosphorylation = assay: Phospho-Smad2/3 Inhibition Assay in PANC-1; assay type: cell-based; conditions: Homo sapiens; 10 μM compound, 3 h; TGF-b1 stimulated PANC-1; western blot; read-out: % inh of Smad2/3 phosphorylation in PANC-1
Experimental: Cell lines: Human tumor-derived pancreatic cancer cell line Panc-1 and mouse muscle myoblast C2C12 were purchased from American Type Culture Collection and grown in complete DMEM-High Glucose, supplemented with penicillin (100 U/mL), streptomycin (100 μg/mL), and 10% heat-inactivated FBS at 37° C. in a humidified incubator with 5% CO2.
Method: Cells were plated at 350000 cells/well density in a 12-well plate, allowed 3 hours to adhere to the plate, then starved in the appropriate medium in the presence of 0.5% FBS overnight. The small molecules to be tested were added to the cells in the final concentration of 10 μM in the presence of 0.3% DMSO for 3 hours incubation at 37° C. For IC50 value determination, serial dilutions of compounds were added to cells under the same conditions. Next, Panc-1 cells were stimulated with 10 ng/ml TGF-b1 for 1 hour, and C2C12 cells were stimulated with 10 ng/ml TGF-b1 for 20 minutes (recombinant human TGF-b1, R&D Systems). After stimulation cells were lysed with lysis buffer containing 1% Triton X-100, EDTA, and Halt™ Protease & Phosphatase Inhibitor Cocktail (Thermo Scientific). Protein concentration was assessed by BCA protein assay (Thermo Scientific). Phosphorylation level of Smad2/Smad3 was determined by western blot.
Western blot protocol: Equal amounts of protein (15-50 μg) were separated by SDS-PAGE and transferred to nitrocellulose membranes (Invitrogen by Thermo Fisher Scientific). The membrane was stained with Ponceau S Stain (Boston BioProducts) to verify uniform protein loading. Membranes were blocked with 10% milk and phosphorylation levels of Smad2/Smad3 were assessed by incubating overnight at 4° C. with the following antibodies: Phospho-Smad2 (Ser465/467) and Phosph-Smad3 (Ser423/425), both from Cell Signaling Technology. Then the membranes were incubated with HRP-conjugated secondary antibody (Jackson Immunoresearch, West Grove, PA). Bands were incubated in Amersham ECL Prime Western Blotting Detection Reagent (GE Healthcare) and visualized using the ChemiDoc MP imaging system (Bio-Rad).

KRas G12D mutant = assay: Ras GTP Binding Domain Inhibition Assay, KRas G12D mutant; conditions: at 20 μM; for KRas G12D mutant + SOS: % inh.: with SOS; for KRas G12D mutant: % inh.: without SOS
Method in brief: as §1

SMILES	KRas wild type + SOS: % inh. (KRas wild type)	KRas wild type: % inh. (KRas wild type)	KRas G12C mutant + SOS: % inh. (KRas G12C mutant)	KRas G12C mutant: % inh. (KRas G12C mutant)	Rho-A: % inh. (Rho-A)	KRas G12D mutant + SOS: % inh. (KRas G12D mutant; Table 7)	KRas G12D mutant + SOS: % inh. (KRas G12D mutant; Table 8)	KRas G12D mutant: % inh. (KRas G12D mutant; Table 7)	KRas G12D mutant: % inh. (KRas G12D mutant; Table 8)	inhibition (TNFα)	inhibition (IL-6)	inhibition at 10 µM (Smad2/3 phosphorylation)
COCCCn1c(-c2nccn2C)nc2sc(-c3ccn(C(C)C)n3)c(-c3ccccc3)c2c1=O [Compound 36, 6-(1-Isopropyl-1H-pyrazol-3-yl)-3-(3-methoxypropyl)-2-(1-methyl-1H-imidazol-2-yl)-5-phenylthieno[2,3-d]pyrimidin-4(3H)-one]	A (A = 1-25% inhibition)	A (A = 1-25% inhibition)	A (A = 1-25% inhibition)	0 (0 = 0% inhibition)	0 (0 = 0% inhibition)	0 (0 = 0% inhibition)	0 (0 = 0% inhibition)	0 (0 = 0% inhibition)	0 (0 = 0% inhibition)	0%	46 to 75%	0%
COCCCOc1nc(-c2nccn2C)nc2sc(-c3ccn(C(C)C)n3)c(-c3ccccc3)c12 [Compound 37, 6-(1-Isopropyl-1H-pyrazol-3-yl)-4-(3-methoxypropoxy)-2-(1-methyl-1H-imidazol-2-yl)-5-phenylthieno[2,3-d]pyrimidine]	A (A = 1-25% inhibition)	0 (0 = 0% inhibition)	0 (0 = 0% inhibition)	0 (0 = 0% inhibition)	0 (0 = 0% inhibition)	0 (0 = 0% inhibition)	0 (0 = 0% inhibition)	0 (0 = 0% inhibition)	0 (0 = 0% inhibition)	0%	76 to 100%	0%
COCCn1c(-c2nccn2C)nc2sc(-c3ccn(C(C)C)n3)c(C)c2c1=O [Compound 29, 6-(1-Isopropyl-1H-pyrazol-3-yl)-3-(2-methoxyethyl)-5-methyl-2-(1-methyl-1H-imidazol-2-yl)thieno[2,3-d]pyrimidin-4(3H)-one]	D (D = 76-100% inhibition)	D (D = 76-100% inhibition)	D (D = 76-100% inhibition)	C (C = 46-75% inhibition)	D (D = 76-100% inhibition)	C (C = 46-75% inhibition)	C (C = 46-75% inhibition)	C (C = 46-75% inhibition)	C (C = 46-75% inhibition)	76 to 100%	76 to 100%	0%
COc1cccc(-c2sc3nc(-c4nccn4C)nc(N[C@@H]4CC[C@@H](OC)C4)c3c2-c2ccccc2)c1F (racemic) [Compound 41, 6-(2-Fluoro-3-methoxyphenyl)-N-((1R,3R)-3-methoxycyclopentyl)-2-(1-methyl-1H-imidazol-2-yl)-5-phenylthieno[2,3-d]pyrimidin-4-amine]	D (D = 76-100% inhibition)	B (B = 26-45% inhibition)	D (D = 76-100% inhibition)	B (B = 26-45% inhibition)	0 (0 = 0% inhibition)	C (C = 46-75% inhibition)	C (C = 46-75% inhibition)	A (A = 1-25% inhibition)	A (A = 1-25% inhibition)	76 to 100%	76 to 100%	76 to 100%
COc1cc(Nc2nc(-c3nccn3C)nc3sc(-c4ccn(C(C)C)n4)c(C)c23)ncn1 [Compound 19, 6-(1-Isopropyl-1H-pyrazol-3-yl)-N-(6-methoxypyrimidin-4-yl)-5-methyl-2-(1-methyl-1H-imidazol-2-yl)thieno[2,3-d]pyrimidin-4-amine]	D (D = 76-100% inhibition)	D (D = 76-100% inhibition)	D (D = 76-100% inhibition)	C (C = 46-75% inhibition)	D (D = 76-100% inhibition)	C (C = 46-75% inhibition)	C (C = 46-75% inhibition)	B (B = 26-45% inhibition)	B (B = 26-45% inhibition)	76 to 100%	76 to 100%	76 to 100%

More lines, main results first:

KRas wild type + SOS: % inh. (KRas wild type)	KRas wild type: % inh. (KRas wild type)	KRas G12C mutant + SOS: % inh. (KRas G12C mutant)	KRas G12C mutant: % inh. (KRas G12C mutant)	Rho-A: % inh. (Rho-A)	KRas G12D mutant + SOS: % inh. (KRas G12D mutant; Table 7)	KRas G12D mutant + SOS: % inh. (KRas G12D mutant; Table 8)	KRas G12D mutant: % inh. (KRas G12D mutant; Table 7)	KRas G12D mutant: % inh. (KRas G12D mutant; Table 8)	SMILES	inhibition (TNFα)	inhibition (IL-6)	inhibition at 10 µM (Smad2/3 phosphorylation)
D (D = 76-100% inhibition)	D (D = 76-100% inhibition)	D (D = 76-100% inhibition)	D (D = 76-100% inhibition)	D (D = 76-100% inhibition)	D (D = 76-100% inhibition)	D (D = 76-100% inhibition)	D (D = 76-100% inhibition)	D (D = 76-100% inhibition)	Cc1c(-c2ccn(C(C)C)n2)sc2nc(-c3nccn3C)nc(NCC3CN(C)CCO3)c12 (racemic) [Compound 25, rac-6-(1-Isopropyl-1H-pyrazol-3-yl)-5-methyl-2-(1-methyl-1H-imidazol-2-yl)-N-((4-methylmorpholin-2-yl)methyl)thieno[2,3-d]pyrimidin-4-amine]	46 to 75%	76 to 100%	0%
D (D = 76-100% inhibition)	D (D = 76-100% inhibition)	D (D = 76-100% inhibition)	D (D = 76-100% inhibition)	D (D = 76-100% inhibition)	C (C = 46-75% inhibition)	C (C = 46-75% inhibition)	D (D = 76-100% inhibition)	D (D = 76-100% inhibition)	Cc1c(-c2ccn(C(C)C)n2)sc2nc(-c3nccn3C)nc(NCC3CCCO3)c12 (racemic) [Compound 26, rac-6-(1-Isopropyl-1H-pyrazol-3-yl)-5-methyl-2-(1-methyl-1H-imidazol-2-yl)-N-((tetrahydrofuran-2-yl)methyl)thieno[2,3-d]pyrimidin-4-amine]	0%	76 to 100%	0%
D (D = 76-100% inhibition)	D (D = 76-100% inhibition)	C (C = 46-75% inhibition)	C (C = 46-75% inhibition)	D (D = 76-100% inhibition)	C (C = 46-75% inhibition)	C (C = 46-75% inhibition)	C (C = 46-75% inhibition)	C (C = 46-75% inhibition)	COCCCOc1nc(-c2nccn2C)nc2sc(-c3ccn(C(C)C)n3)c(C)c12 [Compound 32, 6-(1-Isopropyl-1H-pyrazol-3-yl)-4-(3-methoxypropoxy)-5-methyl-2-(1-methyl-1H-imidazol-2-yl)thieno[2,3-d]pyrimidine]	76 to 100%	76 to 100%	0%
